Reference: the supplement of paper PMC10290057
Where a name gives a salt, the structure may show the parent alone.

Experiments:
HCT116 [1] = assay: AC50 cell viability (CellTiter-Glo); higher = less potent; conditions: 48 h
HCT116 [2] = assay: efficacy (fitted maximal change in viability relative to DMSO control); higher = less cytotoxic (negative = loss of viability); conditions: 48 h
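For AC50 cell viability (CellTiter-Glo) in this document: HCT116 colorectal carcinoma cells screened at five concentrations per compound, luminescent viability scaled between DMSO wells and empty wells on each plate, curves fitted per compound.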
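For efficacy (fitted maximal change in viability relative to DMSO control) in this document: Luminescence-based viability readout, five doses per compound, normalized against on-plate DMSO and empty-well controls, followed by dose-response curve fitting for every drug.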

Row | Compound | AC50 cell viability (HCT116 [1]) | efficacy (HCT116 [2])
1 | COc1ccc(-c2ccc3ncc4c(c3c2)n(-c2ccc(N3CCNCC3)c(C(F)(F)F)c2)c(=O)n4C)cn1 [NVP-BGT226] | 0.295 µM | -117%
2 | COc1cc2nccc(Oc3ccc(NC(=O)NC4CC4)c(Cl)c3)c2cc1C(N)=O [Lenvatinib] | 26.3 µM | -61.7%
3 | OC[C@H]1O[C@H](C[C@@H]1O)N2/C=C(C(=O)NC2=O)/C(F)(F)F [Trifluridine] | 2.63 µM | -62.4%
4 | c1cc(Nc2cc(C3CC3)n[nH]2)nc(Nc2ccc3nc[nH]c3c2)n1 [APY29] | 0.235 µM | -66.4%
5 | COc1cccc2c1C(=O)c1c(O)c3c(c(O)c1C2=O)C[C@@](O)(C(=O)CO)C[C@@H]3O[C@H]1C[C@H](N)[C@@H](O)[C@H](C)O1 [Epirubicin hydrochloride] | 0.372 µM | -77.8%
6 | CC(=O)NCC(=O)N1[C@@H]2CC[C@H]1c1ccc(Nc3ncc(C(F)(F)F)c(NC4CCC4)n3)cc12 | 1.48 µM | -73.5%
7 | CN(C)CC[C@H](CSc1ccccc1)Nc1ccc([S+](=O)([O-])NC(=O)c2ccc(N3CCN(Cc4ccccc4-c4ccc(Cl)cc4)CC3)cc2)cc1[N+](=O)[O-] [ABT-737] | 20.9 µM | -68.4%
8 | CC1=C(C)C2=C(S1)[N]3C(=NN=C3[C@H](CC(=O)OC(C)(C)C)/N=C2/C4=CC=C(Cl)C=C4)C [JQ1] | 0.525 µM | -81.9%
9 | NC\1=N\C(=O)N(\C=C1F)[C@H]2C[C@H](O)[C@@H](CO)O2 | 0.105 µM | -64%
10 | O=C(CCNC(=O)c1ccc(OC(F)(F)F)cc1)N[C@@H]1CCCc2ccccc21 [ML-390] | 0.742 µM | -57.7%
11 | NC/1=N/C2=C([NH]C=N2)C(=S)N1 [Tioguanine] | 0.742 µM | -85.8%
12 | OCCNC1CCCc2c1[nH]c1ccc(-c3ccccc3)cc21 (stereo unspecified) [CASIN] | 8.33 µM | -95.3%
13 | COCCOC(=O)C/1=C(C)/NC/2=C(C1C3=CC=CC(=C3)O)/C(=O)CC(C2)C4=C(OC)C=CC=C4 (stereo unspecified) [HPI-1] | 14.8 µM | -73.6%
14 | CC[C@]1(O)C[C@H]2CN(CCC3=C([NH]C4=C3C=CC=C4)[C@@](C2)(C(=O)OC)C5=CC6=C(C=C5OC)N(C=O)[C@H]7[C@](O)([C@H](OC(C)=O)[C@]8(CC)\C=C/CN9CC[C@]67[C@H]89)C(=O)OC)C1 [Vincristine sulfate] | 0.372 µM | -60.7%
15 | Nc1n[n+]([O-])c2ccccc2[n+]1[O-] [Tirapazamine] | 13.2 µM | -30.4%
16 | OCCCNc1cc(-c2ccnc(Nc3cccc(Cl)c3)n2)ccn1 | 0.059 µM | -58.5%
17 | C[C@H]1[C@H](O)O[C@@H]2O[C@@]3(C)CC[C@H]4[C@H](C)CC[C@@H]1[C@@]24OO3 [Artenimol] | 2.63 µM | -78.7%
18 | CNCc1ccc(-c2cc(-c3nc(-c4ccc([S+](=O)([O-])C(C)C)cc4)cnc3N)on2)cc1 [Berzosertib] | 10.5 µM | -63%
19 | C[N]1C=C(C=N1)C2=CN=C3\C=C/C4=CC=C(C[S+]([O-])(=O)NCC5=NC=CC=C5)C=C4C(=O)C3=C2 [MK-8033] | 16.6 µM | -65.9%
20 | CON(C)C(=O)N1/N=C(S[C@@]1(CCCN)C2=CC=CC=C2)/C3=CC(=CC=C3F)F [Filanesib] | 20.9 µM | -42.1%
21 | FC(F)(F)c1ccc(/C=C/c2nc(COc3ccc(CCCCn4ccnn4)cc3)co2)cc1 [Mubritinib] | 0.0209 µM | -38.5%
22 | C[N]1C=C(C2=CC=CC=C12)/C3=C(/C(=O)NC3=O)C4=C[N](C)C5=CC(=CC=C45)[N+]([O-])=O [MKC-1] | 1.86 µM | -87.5%
23 | C[C@H](CN(C)C)Oc1nc(Nc2cc3cccc(Cl)c3cn2)cnc1C#N | 3.32 µM | -31.2%
24 | COC1=CC=CC(=C1N)\C2=C\C(=O)C3=C(O2)C=CC=C3 | 16.6 µM | -52.9%
25 | C[C@@H](Nc1ncnc2[nH]c(-c3ccc(O)cc3)cc12)c1ccccc1 [PKI-166] | 14.8 µM | -84.7%
26 | CCNCc1nc2c(N)nc3ccccc3c2n1CC(C)(C)O [Gardiquimod] | 16.6 µM | -62%
27 | COC1=CC2=C(C=C1OC)[C@H]3[C@@H](CO2)OC4=C(C=CC5=C4\C=C/C(C)(C)O5)C3=O [Deguelin] | 5.25 µM | -82.8%
28 | CNC(=O)c1cc(Oc2ccc(NC(=O)Nc3ccc(Cl)c(C(F)(F)F)c3)cc2)ccn1 [Sorafenib] | 9.34 µM | -95%
